Assay results as given in patent US7312233B2, “Amide derivatives as ion-channel ligands and pharmaceutical compositions and methods of using the same” (Renovis, Inc., priority 2005, dated 2007).

Target: T1, HsVR1 (Homo sapiens, UniProt Q8NER1)
T1 construct: expressed in transfected cells; host or cells: Xenopus oocytes injected with HsVR1 RNA
Assay: Two-electrode voltage clamp recording (OpusXpress) of capsaicin induced VR1 current in Xenopus oocytes injected with HsVR1 RNA
Format: cell-based
Conditions: 250 nM capsaicin induced VR1 current, n=5 oocytes, FIG. 1
Protocol: Oocytes are prepared by surgically removing Xenopus ovaries obtained from NASCO. The oocytes are isolated by enzymatic dissociation using collagenase (Worthington, 2 mg/ml). Oocytes are then individually injected with HsVR1 RNA. Each oocyte receives 64 nl of RNA solution in water at a concentration of 0.5 μg/μl. Injected oocytes are stored in standard oocyte incubation solution, ND96, containing (in mM) 96 NaCl, 2 KCl, 1 MgCl2, 1.8 CaCl2 and 50 μg/ml Gentamicin at 16° C. […] Eight oocytes are placed in the recording chambers. Each oocyte is impaled by 2 glass electrodes having resistances of 0.5 to 1 MOhm when filled with a 3 M KCl solution. Electrode advancement and oocyte impalement are under software control (OpusXpress® 1.1 Molecular Devices Corporation). The solutions are prepared in 96 well plates and robotically pipetted into the oocyte recording chambers by an 8 channel pipettor. Test solution delivery to the oocytes during the experiment is also under software control. […] The standard test concentrations for the compounds tested here usually range from 0.3 to 2000 nM. Quantitative measurement of VR1 current block is done by calculating the area under the curve described by the inward current. […] These points are then plotted on a logarithmic scale and fitted by a Hill function. The IC50 is calculated from the resulting Hill fit.

T1 sequence (Q8NER1 whole entry): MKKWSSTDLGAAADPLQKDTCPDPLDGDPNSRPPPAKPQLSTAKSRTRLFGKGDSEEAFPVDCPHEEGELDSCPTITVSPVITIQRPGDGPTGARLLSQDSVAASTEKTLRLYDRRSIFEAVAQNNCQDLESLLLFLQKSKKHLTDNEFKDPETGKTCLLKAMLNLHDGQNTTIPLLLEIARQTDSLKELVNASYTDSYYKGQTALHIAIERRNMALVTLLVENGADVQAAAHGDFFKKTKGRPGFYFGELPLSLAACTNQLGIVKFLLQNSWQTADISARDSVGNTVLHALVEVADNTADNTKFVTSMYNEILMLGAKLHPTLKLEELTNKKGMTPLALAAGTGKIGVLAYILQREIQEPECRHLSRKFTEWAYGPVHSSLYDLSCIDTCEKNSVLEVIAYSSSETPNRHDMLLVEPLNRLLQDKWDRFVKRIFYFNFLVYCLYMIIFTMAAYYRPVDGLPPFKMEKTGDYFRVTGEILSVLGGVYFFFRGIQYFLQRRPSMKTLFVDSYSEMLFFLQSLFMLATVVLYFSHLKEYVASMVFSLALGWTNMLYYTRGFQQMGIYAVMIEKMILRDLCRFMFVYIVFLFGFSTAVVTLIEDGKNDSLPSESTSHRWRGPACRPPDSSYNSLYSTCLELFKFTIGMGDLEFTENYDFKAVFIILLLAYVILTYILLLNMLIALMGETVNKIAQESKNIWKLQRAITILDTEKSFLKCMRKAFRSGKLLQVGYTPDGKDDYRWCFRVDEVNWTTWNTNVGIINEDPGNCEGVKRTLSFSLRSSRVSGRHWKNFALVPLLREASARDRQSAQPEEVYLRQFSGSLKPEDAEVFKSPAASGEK

IC50 [nM]	Compound
178 ± 26	Cc1nc2cc(NC(=O)c3ccc(C4CC4)cc3C)ccc2s1 [Compound 7, 4-cyclopropyl-2-methyl-N-(2-methylbenzo[d]thiazol-5-yl)benzamide]

Same assay, conditions: +/- standard error measurement, FIG. 1 legend

IC50 [nM]	Compound
177	Cc1nc2cc(NC(=O)c3ccc(C4CC4)cc3C)ccc2s1 [Compound 7, 4-cyclopropyl-2-methyl-N-(2-methylbenzo[d]thiazol-5-yl)benzamide]

Target: T2, hVR1 (Homo sapiens, UniProt Q8NER1)
T2 construct: expressed in transfected cells; host or cells: T-REx HEK 293 (Invitrogen), pcDNA5/TO vector
Assay: Calcium uptake assay (Fura2, Flex Station) in HEK 293 cells expressing hVR1
Format: cell-based
Conditions: 0.3 μM compound, inhibition of agonist-induced calcium influx, 0.3 µM

T2 sequence (Q8NER1 whole entry): as above

Compound	% Inhib. @ 0.3 μM
Cc1cc(C2CC2C(F)(F)F)ccc1C(=O)Nc1ccc2c(c1)OCCO2 (single isomer, unassigned) [Compound 8, N-(2,3-dihydrobenzo[b][1,4]dioxin-6-yl)-2-methyl-4-(2-(trifluoromethyl)cyclopropyl)benzamide]	+ (compound exhibited 0-25% inhibition of calcium ion influx)
Cc1cc(C2CC2C(F)(F)F)ccc1C(=O)Nc1cnc2ccccc2c1 (single isomer, unassigned) [Compound 20, 2-methyl-N-(quinolin-3-yl)-4-(2-(trifluoromethyl)cyclopropyl)benzamide]	++ (compound exhibited 25-50% inhibition of calcium ion)
Cc1cc(C2CC2C(F)(F)F)ccc1C(=O)Nc1cnc2ccccc2c1 (single isomer, unassigned) [Compound 19, 2-methyl-N-(quinolin-3-yl)-4-(2-(trifluoromethyl)cyclopropyl)benzamide]	+ (compound exhibited 0-25% inhibition of calcium ion influx)
Cc1cc(C2CC2C(F)(F)F)ccc1C(=O)Nc1ccc2c(c1)OCCO2 (single isomer, unassigned) [Compound 13, N-(2,3-dihydrobenzo[b][1,4]dioxin-6-yl)-2-methyl-4-(2-(trifluoromethyl)cyclopropyl)benzamide]	+++ (compound exhibited 50-75% inhibition of calcium ion influx)
Cc1cc(C2CC2C(F)(F)F)ccc1C(=O)Nc1cnc2ccccc2c1 (single isomer, unassigned) [Compound 18, 2-methyl-N-(quinolin-3-yl)-4-(2-(trifluoromethyl)cyclopropyl)benzamide]	+++ (compound exhibited 50-75% inhibition of calcium ion influx)
Cc1cc(C2CC2C(F)(F)F)ccc1C(=O)Nc1cnc2ccccc2c1 (single isomer, unassigned) [Compound 17, 2-methyl-N-(quinolin-3-yl)-4-(2-(trifluoromethyl)cyclopropyl)benzamide]	+++ (compound exhibited 50-75% inhibition of calcium ion influx)

Same assay, conditions: HEK293, 0.3 μM compound, inhibition of agonist-induced calcium influx, read-out: % Inhib. @ 0.3 μM

Compound	inhibition at 0.3 µM [%]
COc1cccc(NC(=O)c2ccc(C3CC3(Cl)Cl)cc2)c1 (centres unmarked) [Compound 4, 4-(2,2-dichlorocyclopropyl)-N-(3-methoxyphenyl)benzamide]	> 75
Cc1cc(C2CC2)ccc1C(=O)Nc1cnc2ccccc2c1 [Compound 5, 4-cyclopropyl-2-methyl-N-(quinolin-3-yl)benzamide]	> 75
Cc1cc(C2CC2)ccc1C(=O)Nc1ccc(C(C)(C)C)cc1 [Compound 2, N-(4-tert-butylphenyl)-4-cyclopropyl-2-methylbenzamide]	0 to 25
COc1cccc(NC(=O)c2ccc(C3CC3)cc2C)c1 [Compound 1, 4-cyclopropyl-N-(3-methoxyphenyl)-2-methylbenzamide]	50 to 75
O=C(Nc1cnc2ccccc2c1)c1ccc(C2CC2(Cl)Cl)cc1 (centres unmarked) [Compound 3, 4-(2,2-dichlorocyclopropyl)-N-(quinolin-3-yl)benzamide]	50 to 75

Other lines, results leading:

inhibition at 0.3 µM [%]	Compound
> 75	Cc1nc2cc(NC(=O)c3ccc(C4CC4(Cl)Cl)cc3)ccc2s1 (centres unmarked) [Compound 6, 4-(2,2-dichlorocyclopropyl)-N-(2-methylbenzo[d]thiazol-5-yl)benzamide]
> 75	Cc1cc(C2CC2C(F)(F)F)ccc1C(=O)Nc1ccc2sc(CO)nc2c1 (single isomer, unassigned) [Compound 15]
> 75	Cc1nc2cc(NC(=O)c3ccc(C4CC4)cc3C)ccc2s1 [Compound 7, 4-cyclopropyl-2-methyl-N-(2-methylbenzo[d]thiazol-5-yl)benzamide]
25 to 50	COc1cccc(NC(=O)c2ccc(C3CC3C(F)(F)F)cc2C)c1 (single isomer, unassigned) [Compound 16, N-(3-methoxyphenyl)-2-methyl-4-(2-(trifluoromethyl)cyclopropyl)benzamide]
> 75	Cc1nc2cc(NC(=O)c3ccc(C4CC4C(F)(F)F)cc3C)ccc2s1 (single isomer, unassigned) [Compound 11, 2-methyl-N-(2-methylbenzo[d]thiazol-5-yl)-4-(2-(trifluoromethyl)cyclopropyl)benzamide]
0 to 25	Cc1cc(C2CC2C(F)(F)F)ccc1C(=O)Nc1cccc2c1CCCC2 (single isomer, unassigned) [Compound 9, 2-methyl-N-(5,6,7,8-tetrahydronaphthalen-1-yl)-4-(2-(trifluoromethyl)cyclopropyl)benzamide]
25 to 50	COc1ccc(NC(=O)c2ccc(C3CC3C(F)(F)F)cc2C)cn1 (single isomer, unassigned) [Compound 10, N-(6-methoxypyridin-3-yl)-2-methyl-4-(2-(trifluoromethyl)cyclopropyl)benzamide]
